Data taken from patent publication US11149018B2, “Substituted N-arylethyl-2-aminoquinoline-4-carboxamides and use thereof” (Bayer Aktiengesellschaft, priority 2017, dated 2021).
Structures can show the parent of a compound that is named as a salt.

Biological target: FP receptor (Homo sapiens (Human), UniProt P43088)
Test: In vitro test of inhibition of human FP receptor activity (PGF2α-induced calcium flux in FP-expressing CHEM1 cells)
Assay type: cell-based
Details: PGF2α 2 nM, some mean values of multiple determinations
Outline: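 FP antagonism in FP-expressing CHEM1 cells loaded with Fluo-8. Compound preincubated 10 min at 37° C, then receptor stimulated with 2 nM (final) PGF2α in calcium-free Tyrode with 2 mM CaCl2.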

Chain of FP receptor (P43088 whole entry): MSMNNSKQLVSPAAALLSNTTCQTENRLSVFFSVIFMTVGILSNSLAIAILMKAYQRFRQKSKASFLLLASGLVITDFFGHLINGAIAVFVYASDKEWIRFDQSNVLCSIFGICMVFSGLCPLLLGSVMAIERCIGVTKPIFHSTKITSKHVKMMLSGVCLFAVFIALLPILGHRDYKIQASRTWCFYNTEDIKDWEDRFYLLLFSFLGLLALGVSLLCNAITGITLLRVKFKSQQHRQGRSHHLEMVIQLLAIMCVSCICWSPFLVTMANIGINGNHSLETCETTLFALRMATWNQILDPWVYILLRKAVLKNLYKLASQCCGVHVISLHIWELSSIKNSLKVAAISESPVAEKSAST

Going from `Cc1c(N2CCCCC2)nc2ccc(Br)cc2c1C(=O)NCC(CCC(=O)O)c1cc(F)ccc1Cl` (single isomer, unassigned; (-)) [Example 6, (−)-5-({[6-Bromo-3-methyl-2-(piperidin-1-yl)quinolin-4-yl]carbonyl}amino)-4-(2-chloro-5-fluorophenyl)pentanoic acid] to `Cc1c(N2CCCCC2)nc2ccc(Br)cc2c1C(=O)NCC(CCC(=O)O)c1cccc(F)c1Cl` (single isomer, unassigned; (-)) [Example 142, (−)-5-({[6-Bromo-3-methyl-2-(piperidin-1-yl)quinolin-4-yl]carbonyl}amino)-4-(2-chloro-3-fluorophenyl)pentanoic acid], the IC50 falls from 7.8 nM to 4.3 nM (1.8-fold).

`CCC1CCCN(c2nc3ccc(Br)cc3c(C(=O)NCC(CCC(=O)O)c3ccccc3C(F)(F)F)c2C)C1` (single isomer, unassigned; (-)) [Example 194, (−)-5-[({6-Bromo-2-[3-ethylpiperidin-1-yl]-3-methylquinolin-4-yl}carbonyl)amino]-4-[2-(trifluoromethyl)phenyl]pentanoic acid] and `Cc1c(N2CCCC(F)C2)nc2ccc(Br)cc2c1C(=O)NCC(CCC(=O)O)c1ccccc1C(F)(F)F` (stereo not drawn) [Example 123, 5-[({6-Bromo-2-[3-fluoropiperidin-1-yl]-3-methylquinolin-4-yl}carbonyl)amino]-4-[2-(trifluoromethyl)phenyl]pentanoic acid] are within 1.5-fold of each other in IC50: 11 nM for the first, 13 nM for the second.

`Cc1c(N2CCCCC2)nc2ccc(Br)cc2c1C(=O)NCC(CCC(=O)O)c1c(Cl)ccc(Cl)c1Cl` (racemic) [Example 171, (+/−)-5-({[6-Bromo-3-methyl-2-(piperidin-1-yl)quinolin-4-yl]carbonyl}amino)-4-(2,3,6-trichlorophenyl)pentanoic acid] and `Cc1c(N2CCCC2)nc2ccc(Br)cc2c1C(=O)NCC(CCC(=O)O)c1c(Cl)ccc(Cl)c1Cl` (single isomer, unassigned; (-)) [Example 176, formate] are within 1.5-fold of each other in IC50: 9.4 nM for the first, 7.8 nM for the second.

Compared with `Cc1c(N2CC[C@H](F)C2)nc2ccc(Br)cc2c1C(=O)NCC(CCC(=O)O)c1ccccc1Cl` (stereo partly drawn) [Example 65, 5-[({6-Bromo-2-[(3S)-3-fluoropyrrolidin-1-yl]-3-methylquinolin-4-yl}carbonyl)amino]-4-(2-chlorophenyl)pentanoic acid], `Cc1c(N2CCCC(F)C2)nc2ccc(Br)cc2c1C(=O)NCC(CCC(=O)O)c1ccccc1Cl` (single isomer, unassigned; (-)) [Example 185, (−)-5-[({6-Bromo-2-[3-fluoropiperidin-1-yl]-3-methylquinolin-4-yl}carbonyl)amino]-4-(2-chlorophenyl)pentanoic acid] is 28-fold lower in IC50: 110 nM for the first, 4 nM for the second. The second is the more potent here.

Going from `Cc1c(N2CCCC(F)(F)C2)nc2ccc(Br)cc2c1C(=O)NCC(CCC(=O)O)c1c(Cl)cccc1Cl` (single isomer, unassigned; (+)) [Example 266, (+)-5-({[6-Bromo-2-(3,3-difluoropiperidin-1-yl)-3-methylquinolin-4-yl]carbonyl}amino)-4-(2,6-dichlorophenyl)pentanoic acid] to `Cc1c(N2CCCC(F)(F)C2)nc2ccc(Br)cc2c1C(=O)NCC(CCC(=O)O)c1c(F)cccc1C(F)(F)F` (single isomer, unassigned; (+)) [Example 168, (+)-5-({[6-Bromo-2-(3,3-difluoropiperidin-1-yl)-3-methylquinolin-4-yl]carbonyl}amino)-4-[2-fluoro-6-(trifluoromethyl)phenyl]pentanoic acid], the IC50 rises from 37 nM to 90 nM (2.4-fold). The first is the more potent here.

First: Cc1c(N2CCCCC2)nc2ccc(Br)cc2c1C(=O)NCC(CCC(=O)O)c1c(F)cccc1C(F)(F)F (single isomer, unassigned; (-)) [Example 161, (−)-5-({[6-Bromo-3-methyl-2-(piperidin-1-yl)quinolin-4-yl]carbonyl}amino)-4-[2-fluoro-6-(trifluoromethyl)phenyl]pentanoic acid]
Second: Cc1c(N2CCCC2)nc2ccc(Br)cc2c1C(=O)NCC(CCC(=O)O)c1c(F)cccc1F (racemic) [Example 247, (+/−)-5-({[6-Bromo-3-methyl-2-(pyrrolidin-1-yl)quinolin-4-yl]carbonyl}amino)-4-(2,6-difluorophenyl)pentanoic acid hydrogenformate]
The IC50 of the first is 39-fold lower: 1.4 nM for the first, 55 nM for the second.

Going from `Cc1c(N2CCCC(F)C2)nc2ccc(Br)cc2c1C(=O)NCC(CCC(=O)O)c1ccccc1OC(F)(F)F` (stereo not drawn) [Example 138, 5-[({6-Bromo-2-[3-fluoropiperidin-1-yl]-3-methylquinolin-4-yl}carbonyl)amino]-4-[2-(trifluoromethoxy)phenyl]pentanoic acid] to `Cc1c(N2CCCCC2)nc2ccc(Br)cc2c1C(=O)NCC(CCC(=O)O)c1ccccc1OC(F)(F)F` (single isomer, unassigned; (-)) [Example 127, (−)-5-({[6-Bromo-3-methyl-2-(piperidin-1-yl)quinolin-4-yl]carbonyl}amino)-4-[2-(trifluoromethoxy)phenyl]pentanoic acid], the IC50 falls from 3 nM to 0.79 nM (3.8-fold). The second is the more potent here.

Going from `COc1ccccc1C(CCC(=O)O)CNC(=O)c1c(C)c(N2CCCCCC2)nc2ccc(Br)cc12` (single isomer, unassigned; (-)) [Example 240, (−)-5-({[2-(Azepan-1-yl)-6-bromo-3-methylquinolin-4-yl]carbonyl}amino)-4-(2-methoxyphenyl)pentanoic acid] to `COc1ccccc1C(CCC(=O)O)CNC(=O)c1c(C)c(N2CCCCC2)nc2ccc(Br)cc12` (single isomer, unassigned; (+)) [Example 235, (+)-5-({[6-Bromo-3-methyl-2-(piperidin-1-yl)quinolin-4-yl]carbonyl}amino)-4-(2-methoxyphenyl)pentanoic acid], the IC50 falls from 16 nM to 1.4 nM (11-fold). The second is the more potent here.

Going from `Cc1c(N2CCC[C@@H]2C)nc2ccc(Br)cc2c1C(=O)NCC(CCC(=O)O)c1ccccc1Cl` (single isomer, unassigned; (-)) [Example 81] to `Cc1c(N2CCCC2C)nc2ccc(Br)cc2c1C(=O)NCC(CCC(=O)O)c1ccccc1Cl` (stereo not drawn) [Example 79, 5-[({6-Bromo-3-methyl-2-[2-methylpyrrolidin-1-yl]quinolin-4-yl}carbonyl)amino]-4-(2-chlorophenyl)pentanoic acid], the IC50 falls from 180 nM to 7.8 nM (23-fold). The second is the more potent here.

Going from `CCC1CCCN(c2nc3ccc(Br)cc3c(C(=O)NCC(CCC(=O)O)c3cc(F)ccc3F)c2C)C1` (racemic) [Example 226, (−)-5-[({6-Bromo-2-[3-ethylpiperidin-1-yl]-3-methylquinolin-4-yl}carbonyl)amino]-4-(2,5-difluorophenyl)pentanoic acid] to `COC1CCCN(c2nc3ccc(Br)cc3c(C(=O)NCC(CCC(=O)O)c3cc(F)ccc3Cl)c2C)C1` (stereo not drawn) [Example 19, 5-[({6-Bromo-2-[3-methoxypiperidin-1-yl]-3-methylquinolin-4-yl}carbonyl)amino]-4-(2-chloro-5-fluorophenyl)pentanoic acid], the IC50 rises from 1.8 nM to 130 nM (72-fold). The first is the more potent here.

First: Cc1c(N2CCCCC2)nc2ccc(Br)cc2c1C(=O)NCC(CC(=O)O)c1c(F)cccc1Cl (single isomer, unassigned; (+)) [Example 3, (+)-4-({[6-Bromo-3-methyl-2-(piperidin-1-yl)quinolin-4-yl]carbonyl}amino)-3-(2-chloro-6-fluorophenyl)butanoic acid]
Second: Cc1c(N2CCCCC2)nc2ccc(Br)cc2c1C(=O)NCC(CCC(=O)O)c1cccc(F)c1Cl (racemic) [Example 141, (+/−)-5-({[6-Bromo-3-methyl-2-(piperidin-1-yl)quinolin-4-yl]carbonyl}amino)-4-(2-chloro-3-fluorophenyl)pentanoic acid]
The IC50 of the first is 16-fold higher: 92 nM for the first, 5.8 nM for the second. The second is the more potent here.

First: Cc1c(NCC(C)C)nc2ccc(Br)cc2c1C(=O)NCC(CCC(=O)O)c1ccccc1Cl (racemic) [Example 102, (+/−)-5-({[6-Bromo-2-(isobutylamino)-3-methylquinolin-4-yl]carbonyl}amino)-4-(2-chlorophenyl)pentanoic acid]
Second: Cc1c(N2CCCC(C(C)C)C2)nc2ccc(Br)cc2c1C(=O)NCC(CCC(=O)O)c1ccccc1Cl (stereo not drawn) [Example 91, 5-[({6-Bromo-2-[3-isopropylpiperidin-1-yl]-3-methylquinolin-4-yl}carbonyl)amino]-4-(2-chlorophenyl)pentanoic acid]
The IC50 of the first is 25-fold higher: 250 nM for the first, 9.9 nM for the second. The second is the more potent here.

Compared with `Cc1c(N2CCOC(C)C2)nc2ccc(Br)cc2c1C(=O)NCC(CCC(=O)O)c1ccccc1Cl` (stereo not drawn) [Example 89, 5-[({6-Bromo-3-methyl-2-[2-methylmorpholin-4-yl]quinolin-4-yl}carbonyl)amino]-4-(2-chlorophenyl)pentanoic acid], `Cc1c(N2CCC[C@@H]2C)nc2ccc(Br)cc2c1C(=O)NCC(CCC(=O)O)c1ccccc1Cl` (single isomer, unassigned; (-)) [Example 80] is 3.6-fold lower in IC50: 350 nM for the first, 98 nM for the second. The second is the more potent here.

First: Cc1c(N2CCCCCC2)nc2ccc(Br)cc2c1C(=O)NCC(CCC(=O)O)c1ccccc1OC(F)(F)F (single isomer, unassigned; (-)) [Example 136, (−)-5-({[2-(Azepan-1-yl)-6-bromo-3-methylquinolin-4-yl]carbonyl}amino)-4-[2-(trifluoromethoxy)phenyl]pentanoic acid]
Second: Cc1c(N2CCCC(F)C2)nc2ccc(Br)cc2c1C(=O)NCC(CCC(=O)O)c1ccccc1OC(F)(F)F (single isomer, unassigned; (+)) [Example 204, (+)-5-[({6-Bromo-2-[3-fluoropiperidin-1-yl]-3-methylquinolin-4-yl}carbonyl)amino]-4-[2-(trifluoromethoxy)phenyl]pentanoic acid]
The IC50 of the first is 2.4-fold lower: 1.1 nM for the first, 2.6 nM for the second. The first is the more potent here.

`Cc1c(N2CCCC(F)C2)nc2ccc(Br)cc2c1C(=O)NCC(CCC(=O)O)c1c(Cl)ccc(Cl)c1Cl` (single isomer, unassigned) [Example 224, 5-[({6-Bromo-2-[3-fluoropiperidin-1-yl]-3-methylquinolin-4-yl}carbonyl)amino]-4-(2,3,6-trichlorophenyl)pentanoic acid] and `Cc1c(N2CCc3ccccc3C2)nc2ccc(Br)cc2c1C(=O)NCC(CCC(=O)O)c1ccccc1Cl` (racemic) [Example 84, (+/−)-5-({[6-Bromo-2-(3,4-dihydroisoquinolin-2(1H)-yl)-3-methylquinolin-4-yl]carbonyl}amino)-4-(2-chlorophenyl)pentanoic acid] are within 1.5-fold of each other in IC50: 38 nM for the first, 28 nM for the second.
